{"source": "patent US5731322A", "about": "“Octahydro-1H-pyrrolo[3,2-g]and [2,3-g]isoquinoline derivatives” (SmithKline Beecham S.p.A., priority 1993, dated 1998)", "key": {"mu opioid receptor": {"target": "T1, mu opioid receptor (Mus musculus, UniProt P42866)", "T1 construct": "Mouse brain membranes were prepared as described by Kosterlitz; from tissue; host or cells: mouse brain membranes", "T1 sequence (P42866 whole entry)": "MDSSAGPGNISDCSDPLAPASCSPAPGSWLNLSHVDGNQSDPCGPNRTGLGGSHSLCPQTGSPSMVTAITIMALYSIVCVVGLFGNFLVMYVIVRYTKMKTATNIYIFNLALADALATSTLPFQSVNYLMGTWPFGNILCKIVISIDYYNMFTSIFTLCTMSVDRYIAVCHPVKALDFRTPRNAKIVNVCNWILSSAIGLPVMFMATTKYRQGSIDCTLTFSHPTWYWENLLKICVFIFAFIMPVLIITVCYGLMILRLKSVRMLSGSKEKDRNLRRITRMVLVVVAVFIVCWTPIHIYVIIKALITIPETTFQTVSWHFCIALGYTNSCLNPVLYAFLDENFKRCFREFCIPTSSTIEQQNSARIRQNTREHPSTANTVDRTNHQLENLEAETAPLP", "assay": "Opioid radioligand binding assay, mu ([3H]-DAMGO), mouse brain membranes", "details": "ratio of Ki, mu ([3H]-DAMGO) vs delta", "procedure": "(§1) Mouse brain membranes were prepared as described by Kosterlitz (Br. J. Pharmacol., 1981, 73, 939.). […] The binding of the mu ligand [^3 H]-DAMGO (Eur. J. Pharmacol., 1989, 166, 213) and of the kappa ligand [^3 H]-U69593 (Excerpta Medica, 1990, 211) were carried out at 0.5 nM. The non-specific binding was determined in presence of naloxone (10 μM) for all tritiated ligands. […] The IC50 obtained were used to calculate the inhibitory constants (Ki) accordingly to the Cheng and Prusoff relation (Biochem. Pharmacol., 1973, 22, 3099)."}, "kappa opioid receptor": {"target": "T2, kappa opioid receptor (Mus musculus, UniProt P33534)", "T2 construct": "Mouse brain membranes were prepared as described by Kosterlitz; from tissue; host or cells: mouse brain membranes", "T2 sequence (P33534 whole entry)": "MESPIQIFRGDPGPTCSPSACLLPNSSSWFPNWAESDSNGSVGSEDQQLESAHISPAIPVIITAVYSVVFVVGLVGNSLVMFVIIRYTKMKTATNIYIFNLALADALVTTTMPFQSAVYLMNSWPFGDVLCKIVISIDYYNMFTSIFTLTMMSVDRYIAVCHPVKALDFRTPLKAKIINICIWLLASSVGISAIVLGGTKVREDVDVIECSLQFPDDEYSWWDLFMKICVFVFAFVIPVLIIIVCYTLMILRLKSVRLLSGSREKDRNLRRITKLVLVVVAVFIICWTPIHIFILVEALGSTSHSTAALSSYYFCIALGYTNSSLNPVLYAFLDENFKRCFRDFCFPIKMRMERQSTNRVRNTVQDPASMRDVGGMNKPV", "assay": "Opioid radioligand binding assay, kappa ([3H]-U69593), mouse brain membranes", "details": "ratio of Ki, kappa ([3H]-U69593) vs delta", "procedure": "as §1"}, "delta receptor [1]": {"target": "T3, delta receptor (Mus musculus, UniProt P32300)", "T3 sequence (P32300 whole entry)": "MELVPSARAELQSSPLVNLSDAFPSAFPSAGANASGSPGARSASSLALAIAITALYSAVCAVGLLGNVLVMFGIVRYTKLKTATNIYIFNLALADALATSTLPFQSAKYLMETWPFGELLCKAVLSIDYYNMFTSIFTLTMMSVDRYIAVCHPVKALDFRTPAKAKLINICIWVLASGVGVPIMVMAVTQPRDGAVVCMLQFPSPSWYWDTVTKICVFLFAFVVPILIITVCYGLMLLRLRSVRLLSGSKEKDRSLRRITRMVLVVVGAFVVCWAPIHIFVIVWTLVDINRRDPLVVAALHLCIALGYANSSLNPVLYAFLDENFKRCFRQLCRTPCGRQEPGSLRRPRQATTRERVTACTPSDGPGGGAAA", "assay": "Opioid radioligand binding assay, delta ([3H]-DADLE in presence of unlabelled DAMGO), mouse brain membranes", "design": "Mouse brain membranes were prepared as described by Kosterlitz; from tissue; host or cells: mouse brain membranes", "details": "[3H]-DADLE 1.3 nM, 40 nM DAMGO", "procedure": "as §1"}, "delta receptor [2]": {"target": "T3, delta receptor", "assay": "Mouse vas deferens (MVD) bioassay, delta agonist/antagonist studies, electrically stimulated tissue", "assay_type": "cell-based, mouse (CD-1)", "design": "Vasa deferentia were obtained from CD-1 mice; from tissue; host or cells: vas deferens of CD-1 mice", "procedure": "Vasa deferentia were obtained from CD-1 mice and were suspended in a Mg^2+ -free Krebs buffer at 37° C. For the delta agonist/antagonist studies, the tissues were electrically stimulated with pulse trains having the following parameters: train duration 50 ms, stimulus duration 2 ms, frequency of stimuli 50 Hz, maximal voltage 60-70 V, train frequency 0.1 Hz. Concentration response curves for each compounds were constructed cumulatively. Linear regression analysis and IC50 concentrations were evaluated according to Tallarida and Murray (Manual of Pharmacological Calculations, Springer Verlag N.Y., 1981)."}}}
{"molecule": "CCN(CC)C(=O)c1[nH]c2c(c1C)C[C@@H]1CN(C)CC[C@@]1(c1cccc(O)c1)C2.Cl", "note": "(racemic) [Example 10, (±)-trans-2-Diethylaminocarbonyl-3,6-dimethyl-8a-(3-hydroxyphenyl)-4,4a,5,6,7,8,8a,9-octahydro-1H-pyrrolo[2,3-g]isoquinoline hydrochloride]", "values": [{"measurement": "Ki mu/Ki delta", "setting": "mu opioid receptor", "value": 45}, {"measurement": "Ki kappa/Ki delta", "setting": "kappa opioid receptor", "value": 403}, {"measurement": "Ki", "setting": "delta receptor [1]", "value": 2.15, "unit": "nM"}, {"measurement": "Kb", "setting": "delta receptor [2]", "value": 7, "unit": "nM"}]}
{"molecule": "CCN1CC[C@@]2(c3cccc(O)c3)Cc3[nH]c(C(=O)N(CC)CC)c(C)c3C[C@@H]2C1.Cl", "note": "(single isomer, unassigned) [Example 34, (-)-trans-2-Diethylaminocarbonyl-6-ethyl-8a-(3-hydroxyphenyl)-3-methyl-4,4a,5,6,7,8,8a,9-octahydro-1H-pyrrolo[2,3-g]isoquinoline hydrochloride]", "values": [{"measurement": "Ki mu/Ki delta", "setting": "mu opioid receptor", "value": 110}, {"measurement": "Ki kappa/Ki delta", "setting": "kappa opioid receptor", "value": 1105}, {"measurement": "Ki", "setting": "delta receptor [1]", "value": 0.73, "unit": "nM"}, {"measurement": "IC50", "setting": "delta receptor [2]; mouse vas deferens, delta agonist study, read-out: IC50 in the MVD preparation (delta agonists)", "value": 26, "unit": "nM"}]}
